Measured values as given in patent US6288110A, “Pharmaceutical compositions comprising disulfiram” (Yeda Research and Development Co Ltd., priority 1998, dated 2001).
Entries after “also recorded” stand apart in the source; their conditions may differ. Where two headings read alike, the source gives them in different places.

Assays:
[1] = test system: bovine capillary endothelial cells (BCE); assay: DNA synthesis (3H-thymidine incorporation) in BCE cells; type: cell-based
Description: Brain bovine capillary endothelial cells (BCE) and bovine vascular smooth muscle cells (BSMC), kindly provided by Prof. Israel Vlodavsky (Hadassah Medical School, Jerusalem, Israel), were cultured at 37° C. in low glucose DMEM (1 g/liter) supplemented with 10% calf serum (HyClone, Logan, Utah, U.S.A.), a serum-free supplement: biogro-1 (Beth Haemek, Israel) and GPS.
Bovine capillary endothelial cells (BCE) and bovine aortic BSMC were plated in 24-well plates (6000 cells per well) in 500 μl DMEM medium supplemented with 10% Colorado calf serum (CCS) (GIBCO, USA) and GPS. After 24 hours, medium was changed to starvation medium (2% CCS, 0.5% BSA, GPS) for 24 hours. ^3 H-methyl-thymidine (5 μCi/ml) was added for the last 6 hours. DNA synthesis assays were performed as described above, in triplicates. DNA synthesis assays in BALB/MK keratinocytes were performed as previously described (Marikovsky, 1995).-DNA synthesis assays were performed in triplicates.
Disulfiram was prepared in 0.1 mM stock solutions in DMSO. Control samples were incubated with the appropriate concentration of DMSO. Inhibition was calculated as percentage of DNA synthesis of control.
To determine whether disulfiram acts directly on endothelial cells rather than on accessory cells such as macrophages and mast cells that can be responsible for the development of an angiogenic response in vivo, the effect of the drug on the growth of BCE cells was examined in vitro as described in section (c) of "Materials and Methods" above. DNA synthesis in BCE cells was measured in presence of increasing concentrations of disulfiram incubated for 24 hours with the cells. […] Maximal inhibitory activity (80%) for BSMC was at 0.5-1 μM disulfiram, while maximal inhibitory activity for C6 glioma cells or BALB/MK keratinocytes was at concentrations 10 fold higher (2-3 μM) than those for endothelial cells (0.2-0.5 μM).
To examine the time course of the effect of disulfiram and whether the effect was reversible, cells were incubated with disulfiram for various periods of time (1, 2, 4 and 24 hours), then washed away and DNA synthesis was determined. One to 4 hours of exposure to disulfiram were enough to induce maximal inhibitory effect at concentrations ranging from 0.5 μM for BCE cells (FIG. 3A) to 5 μM for BALB/MK keratinocytes (FIG. 3C) and C6 glioma cells (FIG. 3D). […] BSMC were less sensitive as far as time course is concerned when incubated with 1 μM disulfiram. Following 4 hours of incubation with 1 μM disulfiram, DNA synthesis inhibition in BSMC reached only 50% (FIG. 3B). The data shown here indicate that the damage for capillary endothelial cells, following a short incubation of 1 to 2 hours, was maximal and that, at least in a time scale of 24 hours, this damage was non-reversible.

[2] = test system: BSMC; assay: Cell rounding, BSMC; type: cell-based, bovine; details: 5 μM
[3] = test system: C6 rat glioma cells; assay: TUNEL assay for apoptosis, C6 rat glioma cells; type: cell-based; details: 5 μM, 6 hours
Description: Cells were cultured on microscope slides for 48 hours in presence of growth media as described above, until reaching 40-50% confluency. Disulfiram was then added to the cells for 6 hours or for 20 hours in the case of BALB/MK keratinocytes, fixed with 4% paraformaldehyde and washed three times with PBS. Apoptosis was analyzed by the in situ TUNEL staining carried out as described (Wride, 1994). Briefly, microscope slides were incubated for 15 min in 2×SSC buffer at 60° C., washed in DDW and incubated with 20 μg/ml proteinase K (Boehringer Mannheim) for 15 min at room temperature. After a wash with DDW, endogenous peroxidases were inactivated by incubating the slides with 2% H2 O2 in PBST (PBS with 0.05% Tween 20) for 10 min at room temperature. Slides were then incubated in TdT buffer (Boehringer Mannheim) for 5 min at room temperature, and a reaction mixture containing 5×TdT buffer and 1 μl biotin-21-dUTP (Clontech, 1 mM stock) and 8 units of the TdT enzyme (Boehringer Mannheim) in total volume of 50 μl was subsequently added. The reactions were carried out at 37° C. for 1.5 hr in a humid chamber. The slides were washed in 2×SSC, DDW and finally with PBS and covered with 10% skim milk in PBST for 15 min. […]

[4] = test system: interleukin-1; details: U.S. Pat. No. 4,870,101; cited from earlier work
[5] = test system: liver tumors; details: dimethyl- or diethylnitrosamine, rats; cited from earlier work
[6] = test system: intestinal cancer; details: azoxymethane, rats; cited from earlier work
[7] = test system: murine leukemia; details: 3 mg/mouse; cited from earlier work

In the case of `CCN(CC)C(=S)SSC(=S)N(CC)CC` [disulfiram, Bis(diethylthiocarbamoyl) disulfide], the “inhibition of DNA synthesis in BCE cells (in words)” value ([1]; 0.1-0.5 μM, 24 hours) is reported as “inhibit DNA synthesis in BCE cells in a dose dependent manner”, the “reversibility of damage for capillary endothelial cells” value ([1]; 1 to 2 hours incubation, time scale of 24 hours) is reported as “non-reversible” and the “concentration used in vitro for endothelial cells (inhibition of growth)” value ([1]; BCE) is reported as 0.1 to 0.2 µM. For the same molecule, the “inhibition of DNA synthesis, short incubation (in words)” value ([1]; BCE, 0.5 μM, 1-2 hours of incubation) was “near maximal inhibition of DNA synthesis”, the “persistence of inhibitory effect after short exposure” value ([1]; BCE, 24 hours following short exposure) was “inhibitory effect seemed to be maintained” and the IC (maximal) ([1]; Bos taurus, Endothelial cell, BCE (endothelial cells), 24 hours, read-out: concentration of maximal inhibitory activity (DNA synthesis)) was 0.2 to 0.5 µM. For the same molecule, the IC (maximal) ([1]; Bos taurus, Endothelial cell, BCE, 1 to 4 hours of exposure, washed, read-out: concentration inducing maximal inhibitory effect on DNA synthesis, short exposure) was 0.5 µM, the IC100 ([1]; Bos taurus, Endothelial cell, BCE, 24 hours, read-out: concentration of complete inhibition of DNA synthesis) was 0.5 µM and the cell rounding [2] was “did not change their shape to the rounded form”. For the same molecule, the “apoptosis by TUNEL method” value [3] was “not labeled; also recorded: did not induce”, the “inhibition of interleukin-1 release” value [4] was “effective to inhibit the release of interleukin-1” and the “interference with induction of liver tumors” value [5] was “interfere with induction of cancer”. The “interference with induction of intestinal cancer” value [6] was “interfere with induction of cancer” and the “potentiation of nitrogen mustard (HN2) cytotoxicity” value [7] was “potentiate”.
